Experimental data from ChEMBL document CHEMBL3739424, “Synthesis and biological evaluation of 2,3-diarylthiophene analogues of combretastatin A-4” (Medchemcomm, 2015).
Calls of active or inactive are those of the source. No cut-off for these calls is given here.

Columns and labels:
[1] = Anti-proliferative activity against human HT1080 cells after 72 hrs by MTT assay; assay type: functional, cell-based; settings: HT-1080, 72 h
[2] = Anti-proliferative activity against human SGC7901 cells after 72 hrs by MTT assay; assay type: functional, cell-based; settings: SGC-7901, 72 h
[3] = tested on: KB; assay: Anti-proliferative activity against human KB cells after 72 hrs by MTT assay; assay type: functional, cell-based
[4] = target: T1, Tubulin (Homo sapiens) (UniProt P68371+Q9H4B7+P0DPH7+P68366+Q13509+Q71U36+P04350+Q3ZCM7+P07437+P68363+Q9BQE3+Q6PEY2+Q13885+Q9BVA1+Q9BUF5); assay: (§1) Inhibition of tubulin (unknown origin) polymerization pre-incubated for 1 min measured for 1 min interval for 90 mins by fluorescence based assay; assay type: protein-complex assay
[5] = target: Tubulin; assay: as §1; assay type: protein-complex assay, Homo sapiens
[6] = target: T1, Tubulin (Homo sapiens); assay: Inhibition of tubulin (unknown origin) polymerization at 10 uM pre-incubated for 1 min measured for 1 min interval for 90 mins by fluorescence based assay; assay type: protein-complex assay
[7] = target: T1, Tubulin (Homo sapiens); assay: Inhibition of tubulin (unknown origin) polymerization at 2.5 uM pre-incubated for 1 min measured for 1 min interval for 90 mins by fluorescence based assay; assay type: protein-complex assay
[8] = target: T1, Tubulin (Homo sapiens); assay: Inhibition of tubulin (unknown origin) polymerization at 5 uM pre-incubated for 1 min measured for 1 min interval for 90 mins by fluorescence based assay; assay type: protein-complex assay
[9] = target: T1, Tubulin (Homo sapiens); assay: Inhibition of tubulin (unknown origin) polymerization at 15 uM pre-incubated for 1 min measured for 1 min interval for 90 mins by fluorescence based assay; assay type: protein-complex assay
[10] = tested on: SGC-7901; assay: Induction of microtubule network disruption in human SGC7901 cells at 0.4 uM after 24 hrs using DAPI immunofluorescence staining; assay type: cell-based
[11] = target: T1, Tubulin (Homo sapiens); assay: Inhibition of tubulin (unknown origin) polymerization at 1 uM pre-incubated for 1 min measured for 1 min interval for 90 mins by fluorescence based assay; assay type: protein-complex assay
[12] = target: T1, Tubulin (Homo sapiens); assay: Inhibition of tubulin (unknown origin) polymerization at 2 uM pre-incubated for 1 min measured for 1 min interval for 90 mins by fluorescence based assay; assay type: protein-complex assay
[13] = target: T1, Tubulin (Homo sapiens); assay: Inhibition of tubulin (unknown origin) polymerization at 4 uM pre-incubated for 1 min measured for 1 min interval for 90 mins by fluorescence based assay; assay type: protein-complex assay

| IC50 [3] [µM] | SMILES | IC50 [1] [µM] | IC50 [2] [µM] | further results |
| --- | --- | --- | --- | --- |
| 32.3 | COc1cc(-c2cc(C(=O)O)sc2-c2cccc(Br)c2)cc(OC)c1OC | > 100 | 93.4 |  |
| 24 | CCOC(=O)c1cc(-c2ccc(OC)c([N+](=O)[O-])c2)c(-c2cc(OC)c(OC)c(OC)c2)s1 | 26.1 | 19.4 |  |
| 8.65 | COc1ccc(-c2cc(C(=O)O)sc2-c2cc(OC)c(OC)c(OC)c2)cc1 | 5.81 | 4.22 |  |
| 35.9 | COc1ccc(-c2sc(C(=O)O)cc2-c2cc(OC)c(OC)c(OC)c2)cc1[N+](=O)[O-] | 37.2 | 23.3 |  |
| 3.66 | COc1cc(-c2ccsc2-c2ccc3ccccc3c2)cc(OC)c1OC | 5.43 | 5.89 |  |
| > 100 | CCOC(=O)c1cc(-c2cc(OC)c(OC)c(OC)c2)c(-c2cccc(Br)c2)s1 | > 100 | > 100 |  |
| 6.27 | COc1ccc(-c2sccc2-c2cc(OC)c(OC)c(OC)c2)cc1O | 1.94 | 0.58 | inhibition [4]: Dose-dependent effect; IC50 [5]: 9.76 µM; inhibition [6]: 48%; inhibition [7]: 7.4%; inhibition [8]: 20%; inhibition [9]: 72.3% |
| 21 | COc1ccc(-c2ccsc2-c2cc(OC)c(OC)c(OC)c2)cc1[N+](=O)[O-] | 8.04 | 10.2 |  |
| 8.88 | COc1ccc(-c2sccc2-c2cc(OC)c(OC)c(OC)c2)cc1 | 4.59 | 5.47 |  |
| 13.2 | CCOC(=O)c1cc(-c2cc(OC)c(OC)c(OC)c2)c(-c2ccc(OC)cc2)s1 | 8.37 | 9.76 |  |
| > 100 | CCOC(=O)c1cc(-c2ccc(OC)c(OCc3ccccc3)c2)c(-c2cc(OC)c(OC)c(OC)c2)s1 | > 100 | > 100 |  |
| 10.2 | CCOC(=O)c1cc(-c2ccc(OC)cc2)c(-c2cc(OC)c(OC)c(OC)c2)s1 | 7.63 | 6.82 |  |
| 11.2 | COc1ccc(-c2sc(C(=O)O)cc2-c2cc(OC)c(OC)c(OC)c2)cc1O | 7.51 | 6.1 |  |
| > 100 | COc1ccc(-c2ccsc2-c2cc(OC)c(OC)c(OC)c2)cc1OCc1ccccc1 | > 100 | > 100 |  |
| > 100 | CCOC(=O)c1cc(-c2ccc(OC)c(O)c2)c(-c2cc(OC)c(OC)c(OC)c2)s1 | 82.5 | 20 |  |
| 21.8 | COc1ccc(-c2cc(C(=O)O)sc2-c2cc(OC)c(OC)c(OC)c2)cc1O | 11.4 | 17.5 |  |
| > 100 | COc1ccc(-c2sc(C(=O)O)cc2-c2cc(OC)c(OC)c(OC)c2)cc1OCc1ccccc1 | > 100 | > 100 |  |
| 43.7 | COc1ccc(-c2cc(C(=O)O)sc2-c2cc(OC)c(OC)c(OC)c2)cc1[N+](=O)[O-] | 38.1 | 21.6 |  |
| 7.4 | COc1ccc(-c2ccsc2-c2cc(OC)c(OC)c(OC)c2)cc1 | 3.62 | 2.74 |  |
| 10.6 | COc1ccc(-c2sccc2-c2cc(OC)c(OC)c(OC)c2)cc1[N+](=O)[O-] | 2.1 | 3.31 |  |
| 10.4 | COc1ccc(-c2sc(C(=O)O)cc2-c2cc(OC)c(OC)c(OC)c2)cc1 | 6.77 | 7.8 |  |
| > 100 | CCOC(=O)c1cc(-c2cc(OC)c(OC)c(OC)c2)c(-c2ccc(OC)c(OCc3ccccc3)c2)s1 | > 100 | > 100 |  |
| > 100 | COc1ccc(-c2sccc2-c2cc(OC)c(OC)c(OC)c2)cc1OCc1ccccc1 | > 100 | > 100 |  |
| > 100 | COc1cc(-c2ccsc2-c2cccc(Br)c2)cc(OC)c1OC | > 100 | 46.1 |  |
| 1.53 | COc1ccc(-c2ccsc2-c2cc(OC)c(OC)c(OC)c2)cc1O | 2.12 | 0.52 | inhibition [4]: Dose-dependent effect; IC50 [5]: 5.01 µM; inhibition [11]: 10%; inhibition [12]: 23.3%; inhibition [13]: 39.3%; inhibition [6]: 87.5%; Activity [10]: Active |
| 5.64 | COc1cc(-c2cc(C(=O)O)sc2-c2ccc3ccccc3c2)cc(OC)c1OC | 13.4 | 0.38 |  |
| 5.89 | CCOC(=O)c1cc(-c2cc(OC)c(OC)c(OC)c2)c(-c2ccc3ccccc3c2)s1 | 1.15 | 4.34 |  |
| 1.25 | CCOC(=O)c1cc(-c2cc(OC)c(OC)c(OC)c2)c(-c2ccc(OC)c(O)c2)s1 | 3.22 | 1.58 |  |
| > 100 | COc1ccc(-c2cc(C(=O)O)sc2-c2cc(OC)c(OC)c(OC)c2)cc1OCc1ccccc1 | > 100 | > 100 |  |
| 15.8 | CCOC(=O)c1cc(-c2cc(OC)c(OC)c(OC)c2)c(-c2ccc(OC)c([N+](=O)[O-])c2)s1 | 12.7 | 18.1 |  |

| SMILES | IC50 [3] [µM] | IC50 [1] [µM] | IC50 [2] [µM] | further results |
| --- | --- | --- | --- | --- |
| COc1ccc(/C=C\c2cc(OC)c(OC)c(OC)c2)cc1O [COMBRETASTATIN A4] | 0.016 | 0.011 | 0.024 | Activity [10]: Active |
